In ChEMBL document CHEMBL5120964, “Novel Antagonist of the Type 2 Lysophosphatidic Acid Receptor (LPA2), UCM-14216, Ameliorates Spinal Cord Injury in Mice” (J Med Chem, 2022):
Blank lines part the entries; values can stand above or below the compound they belong to. Activity calls are given as the source filed them. The calls are words filed in the database; no cut-off is given here.

How the values were obtained:
Mus musculus [1] = assay: Protection of spinal cord injury-induced locomotor defect in C57B1/6J mouse model assessed as frequent stepping at 25 mg/kg, ip treated 35 days after post injury for 10 consecutive days; format: functional, organism-based; conditions: time 35.0 day
Mus musculus [2] = assay: Protection of spinal cord injury-induced locomotor defect in C57B1/6J mouse model assessed as increase in motor skills at 25 mg/kg, ip treated 35 days after post injury for 10 consecutive days; format: functional, organism-based; conditions: time 35.0 day
[3] = Plasma concentration in C57B1/6J mouse at 25 mg/kg, ip measured after 0.5 hrs by HPLC-MS analysis
Mus musculus [4] = assay: Protection of spinal cord injury-induced locomotor defect in C57B1/6J mouse model assessed as increase in locomotor activity at 25 mg/kg, ip treated for 10 consecutive days; format: functional, organism-based
[5] = target: T1, Lysophosphatidic acid receptor 3 (Homo sapiens) (UniProt Q9UBY5); assay: Antagonist activity at LPA3 receptor (unknown origin) expressed in cells assessed as maximal blockade of LPA-induced calcium mobilization at 10 uM measured after 120 secs by Fluo-4 NW dye based assay relative to control; format: functional, cell-based; conditions: filed as antagonist, time 120.0 sec
T1 sequence (whole entry): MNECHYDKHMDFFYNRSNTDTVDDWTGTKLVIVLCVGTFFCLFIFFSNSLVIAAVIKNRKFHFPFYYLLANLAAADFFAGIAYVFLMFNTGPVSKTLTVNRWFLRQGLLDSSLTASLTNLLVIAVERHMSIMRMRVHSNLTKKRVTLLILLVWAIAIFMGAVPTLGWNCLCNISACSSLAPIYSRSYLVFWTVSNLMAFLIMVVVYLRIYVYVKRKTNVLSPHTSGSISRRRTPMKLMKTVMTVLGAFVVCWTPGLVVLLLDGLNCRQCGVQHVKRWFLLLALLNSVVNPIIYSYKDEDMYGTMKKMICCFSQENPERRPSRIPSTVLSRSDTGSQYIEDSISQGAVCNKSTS

[6] = target: T2, Lysophosphatidic acid receptor 2 (Homo sapiens, UniProt Q9HBW0); assay: Antagonist activity at LPA2 receptor (unknown origin) expressed in cells assessed as maximal blockade of LPA-induced calcium mobilization at 10 uM measured after 120 secs by Fluo-4 NW dye based assay relative to control; format: functional, cell-based; conditions: filed as antagonist, time 120.0 sec
[7] = target: T2, Lysophosphatidic acid receptor 2; assay: Antagonist activity at LPA2 receptor (unknown origin) expressed in cells assessed as blockade of LPA-induced calcium mobilization measured after 120 secs by Fluo-4 NW dye based assay; format: functional, cell-based
[8] = Metabolic stability in human liver microsomes assessed as half life by HPLC-MS analysis; format: ADME, Microsome

T2 sequence (Q9HBW0 whole entry): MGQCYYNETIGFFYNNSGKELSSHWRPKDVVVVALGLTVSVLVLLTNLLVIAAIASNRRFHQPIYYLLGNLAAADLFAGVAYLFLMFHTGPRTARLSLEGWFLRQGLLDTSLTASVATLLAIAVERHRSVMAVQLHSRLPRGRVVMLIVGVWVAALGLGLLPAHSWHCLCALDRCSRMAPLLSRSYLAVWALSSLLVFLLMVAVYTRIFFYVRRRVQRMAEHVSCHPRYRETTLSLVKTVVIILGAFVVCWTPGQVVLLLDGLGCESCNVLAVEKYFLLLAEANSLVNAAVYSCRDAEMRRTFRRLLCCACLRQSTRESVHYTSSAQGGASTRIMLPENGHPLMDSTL

SMILES: Cc1[nH]nc(-c2ccc(OCc3nnn[nH]3)cc2O)c1Oc1ccc(Cl)cc1Cl
- Activity (Mus musculus [1]): Active
- Activity (Mus musculus [2]): Active
- concentration at 0.5 h [3]: 103000 ng/g
- Activity (Mus musculus [4]): Active

- Emax [5]: 71%
- Emax [6]: 58%
SMILES: Cc1noc(-c2ccc(OCC(=O)O)cc2O)c1Oc1ccc(Cl)cc1Cl

SMILES: Cc1[nH]nc(-c2ccc(OCc3nnn[nH]3)cc2O)c1Oc1ccc(F)cc1F
- IC50 [7]: 31 µM

- t1/2 [8]: 1.02 h
SMILES: Cc1[nH]nc(-c2ccc(OCC(=O)O)cc2O)c1Oc1ccc(Cl)cc1Cl
